From paper PMC5397059, “Design, synthesis and structure-activity relationship study of wollamide B; a new potential anti TB agent” (PLoS ONE, 2017)
Converted amounts (≈) assume the structure as drawn. “And” between values parts separate entries of the source, which are not always exact repeats. Identical values can stand only once. Like-named read-outs stand apart in the source and are kept apart here. Non-standard residues stand in square brackets, D forms with d. Residues, ends and D or L forms follow the SMILES beside them. dOrn = NCCC[C@@H](N)C(=O)O

Experiments:
[1] = Plasma stability assay, mouse plasma; assay type: in vitro ADME; conditions: for remaining at 2 h, 1 uM: CD1, mouse, plasma
Experimental: (§1) Plasma stability of the compounds was assessed in CD1 mouse and human plasma. Plasma was spiked with 1 μL of a 10 mM of each test compound solution to produce a 1 uM incubation. Three separate 300 μl aliquots were then taken from each tube and incubated at 37°C for 2 h. At each time point (0, 15, 30, 60 and 120 min), 50 μL of plasma were collected from each sample. Samples were extracted by protein precipitation with 250 μL of 0.1% AcOH acetonitrile methanol 3–1 (v/v) containing 1uM internal standard and centrifuged for 10min at 2800rpm. Supernatants were collected prior the injection onto an LC-MS/MS system. Analyte/Internal standard peak area ratios were referenced to the zero time-point samples as 100% in order to determine the percentage of compound remaining for each time-point. Ln plots of the % remaining for each compound were used to determine the half-life for the plasma incubations.

[2] = system: M. bovis; conditions: cited from earlier work
[3] = Chrom logD assay; assay type: physicochemical
Procedure, shortened: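 Reversed-phase C18 HPLC with fast acetonitrile gradient starting from 100% pH 7.4 buffer; CHI from retention times via calibration standards. ChromlogD = 0.0857CHI − 2.00; assay error ±3 CHI or ±0.25 ChromlogD.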

[4] = molecular target: T1, human serum albumin (Homo sapiens, UniProt P02768); test: Human serum albumin (HSA) binding assay; assay type: in vitro ADME
Procedure, shortened: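 Gradient retention times measured on an immobilized HSA HPLC column with UV detection. Retention times converted to HSA binding values by a linear calibration against reference compounds of known binding, run before each batch.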

[5] = Artificial membrane permeability assay; assay type: in vitro ADME; conditions: PAMPA, pH 7.4
Procedure, shortened: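 PAMPA using L-α-phosphatidylcholine in cholesterol decane as the membrane, with 50 mM phosphate buffer containing 0.5% encapsin at pH 7.4 on both sides. Compound added to donor; plates shaken 3 h at room temperature in duplicate. Donor and receiver concentrations measured by HPLC; permeability reported in nm/sec.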

[6] = Chemi-Luminescent Nitrogen Detection (CLND) kinetic solubility assay; assay type: physicochemical; conditions: phosphate buffered saline, pH 7.4
Procedure, shortened: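 10 mM DMSO stock diluted 5 μL into 100 uL pH 7.4 phosphate buffered saline, equilibrated 1 h at room temperature, then filtered. Filtrate quantified by calibrated flow-injection CLND; standard error ±30 μM, upper limit 500 μM.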

[7] = Plasma stability assay, human plasma; assay type: in vitro ADME; conditions: for remaining at 2 h, 1 uM: human, plasma
Experimental: as §1

[8] = Intrinsic clearance (CLint) assay, human liver microsomes; assay type: in vitro ADME; conditions: for half-life at 0.5 µM: human, pooled human liver microsomes
Procedure, shortened: (§2)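 Pooled liver microsomes (0.5 mg/mL protein) with test compound at 0.5 μM (0.5% DMSO), 5 mM MgCl2 and pH 7.4 phosphate buffer were run at 37°C; 1 mM NADPH started the reaction. Samples at 0-45 min were analysed by LC-MS/MS; t1/2 and CLint were derived from the ln peak-area-ratio slope.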

[9] = system: Mtb H37Rv
[10] = Intrinsic clearance (CLint) assay, mouse liver microsomes; assay type: in vitro ADME; conditions: for half-life at 0.5 µM: mouse, pooled mouse liver microsomes, pH 7.4
Procedure, shortened: as §2

[11] = system: intracellular mycobacterial survival in murine bone marrow-derived macrophages; parameters: method as in PMID 25229313; conditions: cited from earlier work
[12] = system: mycobacteria; parameters: method as in PMID 25229313; conditions: cited from earlier work
[13] = molecular target: T1, human serum albumin; test: HPLC retention on an immobilised HSA column; HSA immobilised on the column; gradient retention times of the compounds converted to % HSA binding by a calibration set of compounds of known HSA binding; UV detection

T1 sequence (P02768 25-609): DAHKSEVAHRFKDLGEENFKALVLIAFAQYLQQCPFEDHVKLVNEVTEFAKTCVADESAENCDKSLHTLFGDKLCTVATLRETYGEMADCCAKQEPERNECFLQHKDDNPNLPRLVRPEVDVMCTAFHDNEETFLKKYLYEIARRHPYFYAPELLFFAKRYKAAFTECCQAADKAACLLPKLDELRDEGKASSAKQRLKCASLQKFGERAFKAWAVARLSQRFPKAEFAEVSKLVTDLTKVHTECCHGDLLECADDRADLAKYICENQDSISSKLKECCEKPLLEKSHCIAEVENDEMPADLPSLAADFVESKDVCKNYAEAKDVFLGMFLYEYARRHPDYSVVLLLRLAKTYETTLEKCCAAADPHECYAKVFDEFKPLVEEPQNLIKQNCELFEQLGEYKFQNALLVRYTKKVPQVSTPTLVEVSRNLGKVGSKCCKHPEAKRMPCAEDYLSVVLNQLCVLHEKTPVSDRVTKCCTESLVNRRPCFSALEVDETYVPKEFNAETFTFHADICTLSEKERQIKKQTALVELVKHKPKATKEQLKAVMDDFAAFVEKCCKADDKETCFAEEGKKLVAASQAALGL

Compound: CC(C)C[C@@H]1NC(=O)[C@H](Cc2c[nH]c3ccccc23)NC(=O)[C@@H](CCCN)NC(=O)[C@H](CC(N)=O)NC(=O)[C@H](C(C)C)NC(=O)[C@@H](CC(C)C)NC1=O [Compound 1c, wollamide B] (cyclo([dOrn]WL[dL]VN))
- Plasma stability (% remaining), Mouse plasma ([1]; 2 h at 37°C, Table 1): More than 90 % remaining
- remaining at 2 h, 1 uM ([1]; 2 h at 37°C, Table 1, read-out: Plasma stability (% remaining), Mouse plasma): 90%
- IC50 [2]: 3.1 µM
- chromatographic logD ([3]; pH 7.4, Table 1, read-out: Log D pH = 7.4): 1.8
- % Human serum albumin binding ([4]; Table 1): 73% and 72.66%
- Papp at 3 h ([5]; Table 1, read-out: Artificial membrane permeability): < 0.3 ×10⁻⁶ cm/s
- solubility kinetic at 1 h ([6]; kinetic aqueous solubility, Table 1, read-out: Solubility CLND): 151 µg/mL (≈ 204 µM)
- IC50: 56 µM
- Plasma stability (% remaining), Human Plasma ([7]; 2 h at 37°C, Table 1): More than 90 % remaining
- remaining at 2 h, 1 uM ([7]; 2 h at 37°C, Table 1, read-out: Plasma stability (% remaining), Human Plasma): 100%
- Human CLint ([8]; Table 1): 0.97 mL/min/g
- half-life at 0.5 µM ([8]; pH 7.4, Table 1, read-out: Human microsomal half-life): 0.947 h
- Human predicted % LBF ([8]; liver blood flow, Table 1): 56.88%
- % LBF given as a fraction (metabolic stability class) ([8]; predicted hepatic clearance, microsomal stability): 1/2
- Mtb H37Rv MIC ([9]; Table 1): 0.6 µM
- Mouse CLint ([10]; Table 1): <0.50 mL/min/g
- Mouse predicted % LBF ([10]; liver blood flow, Table 1): <16.83%
- half-life at 0.5 µM ([10]; Table 1, read-out: Mouse microsomal half-life): > 2.31 h
- intracellular mycobacterial survival [11]: reduce the intracellular mycobacterial survival

Compound: CC(C)C[C@@H]1NC(=O)[C@@H](CC(C)C)NC(=O)[C@@H](CCCN)NC(=O)[C@H](CC(N)=O)NC(=O)[C@H](C(C)C)NC(=O)[C@H](Cc2c[nH]c3ccccc23)NC1=O [Compound 21c] (cyclo(LWVN[dOrn][dL]))
- remaining at 2 h, 1 uM ([1]; 2 hours at 37°C, triplicates, read-out: Plasma stability (% remaining) Mouse): 98%
- chromatographic logD ([3]; pH 7.4, read-out: Log D): 1.89
- % HSA ([4]; human serum albumin binding): 79.64%
- Papp at 3 h ([5]; passive artificial membrane permeability, read-out: Permeability): < 0.3 ×10⁻⁶ cm/s
- solubility kinetic at 1 h ([6]; kinetic aqueous solubility by CLND, read-out: Solubility): ≥ 210 µg/mL
- remaining at 2 h, 1 uM ([7]; 2 hours at 37°C, triplicates, read-out: Plasma stability (% remaining) Human): 97%
- CLint Human ([8]; human liver microsomes): <0.40 mL/min/g tissue
- half-life at 0.5 µM ([8]; pH 7.4, human liver microsomes, read-out: Microsomal t1/2 Human): > 2.31 h
- % LBF Human ([8]; liver blood flow): <35.25%
- CLpred Human ([8]; predicted metabolic clearance): <6.35 mL/min/kg
- MIC against Mtb H37Rv ([9]; duplicate, analogues): 20 µM (≈ 14.8 µg/mL)
- % LBF Mouse ([10]; liver blood flow): <16.83%
- CLint Mouse ([10]; mouse liver microsomes): <0.50 mL/min/g tissue
- half-life at 0.5 µM ([10]; read-out: Microsomal t1/2 Mouse): > 2.31 h
- CLpred Mouse ([10]; predicted metabolic clearance): <21.21 mL/min/kg

Compound: desotamide B
- antimycobacterial activity [12]: no antimycobacterial activity

Compound: wollamide B (peptide)
- % Human serum albumin binding [13]: 72.7%
